Results reported in article PMC4355590, “A Kinetic Study of the Main Guaco Metabolites Using Syrup Formulation and the Identification of an Alternative Route of Coumarin Metabolism in Humans” (PLoS ONE, 2015).
Values after ≈ are worked out from the molar mass of the structure shown. Values joined by “and” are separate entries in the source; they are usually repeats but may differ in a detail not shown here. Equal entries are not always repeated. Where two headings read alike, the source gives them in different places. Marks after values point to notes of the source that are not given here.

How the values were obtained:
[1] = tested on: allergic airway inflammation; design: method as in PMID 19289114; settings: mice, 60 mg/kg; cited from earlier work
[2] = Post-preparative stability of extracted samples; type: physicochemical; settings: for Mean recovery: post-preparative: extracted samples 24 hours at 20°C, n = 8, ± SD; for RE: post-preparative
Procedure: Freeze-thawed, post-preparative and long-term stability assay samples were prepared and evaluated similar to the short-term stability samples. However, the freeze thawing assay was assessed after undergoing three freeze-thaw cycles (one freeze-thaw cycle per day on three consecutive days) and post-preparative assay, maintaining the extracted samples for 24 hours in the Sample Manager (20°C, transparent vials). The long-term stability of human plasma stored at -40°C was assessed at the end of the study (60 days).

[3] = Pharmacokinetic study: volunteers orally received 60 mL of guaco syrup spiked with 1500 mg of COU, plasma by HPLC-MS/MS; type: in vivo, human
Description: The weight ranged from 63 to 88 kg and the height from 1.65 to 1.80 m. The volunteers were submitted to the medical consultations and clinical analyses before their participation in the study. Only healthy volunteers (normal values of blood pressure and renal, hepatic, biochemical and hematological parameters) were eligible to participate in the study. […] The volunteers were informed about all the procedures and possible risks related to the study. All the volunteers provided written informed consent to participate in the study. […] All the volunteers fasted for 8 h prior to the administration of guaco syrup and blood collection. […] The anticoagulant used was tetrasodium edetate. […] The pharmacokinetic analysis was performed using a non-compartmental model, considering an extravascular administration route and using WinNonlin Professional software, version 5.3. The relationships among the areas under the curves (r areas = AUC0-t/AUC0-inf), were used to confirm the suitability of the experimental design. […] All the frozen (-40°C) human plasma samples from the volunteers were thawed at room temperature, and a 200 μL aliquot was transferred into 2 mL plastic centrifuge tubes. The analytes were extracted as follows. The 200 μL aliquots of thawed samples were spiked with 50 μL of acetonitrile/water (70:30 v/v) and 50 μL of the working IS solution to obtain a final concentration of 500 ng/mL of 6-methylcoumarin. The spiked samples were vortexed for 2 min, and a 1.5 mL aliquot of TBME was added to the tube. The samples were vortexed for 2 min and then submitted to centrifugation for 10 min (14000 rpm, -5°C). A 1.2 mL aliquot of each sample supernatant was transferred to a new plastic centrifuge tube, and TBME was evaporated at 40°C in a sample concentrator (CentriVap Labconco, Kansas City, EUA). The remaining samples were resuspended in 200 μL of acetonitrile/water (70:30 v/v) using a vortex mixer for 3 min. The 200 μL aliquots of the thawed samples were spiked with 50 μL of acetonitrile/water (70:30 v/v) and 50 μL of the working IS solution to obtain a final concentration of 500 ng/mL of prednisone (IS) and 1000 ng/mL of isoferulic acid (IS). The spiked samples were vortexed for 2 min, and a 1.5 mL of acetonitrile was added to the tube. The samples were vortexed for 2 min and then were submitted to centrifugation for 10 min (14000 rpm, -5°C). Each sample supernatant was transferred to a new plastic centrifuge tube, and acetonitrile was evaporated in a sample concentrator (40°C). The samples were resuspended in 200 μL of acetonitrile/water (70:30 v/v) using a vortex mixer for 3 min. […] The HPLC was connected to a CTC Sample Manager (Model 2777, Waters Corporation, Milford, USA) that was operated at room temperature. Acetonitrile and methanol were used as wash solvents. The HPLC system was coupled to an Applied Biosystems MDS Sciex API 3200 Triple Quadrupole Mass Spectrometer (Toronto, Canada), equipped with a Harvard 22 Dual Model syringe pump (Harvard Apparatus, South Natick, USA) and an electrospray ionization (ESI) source. […] For the positive ion mode, the mobile phase consisted of acetonitrile/water/formic acid (70:30:0.05 v/v/v) at an elution rate of 200 μL/min in an isocratic system. For the negative ion mode, the mobile phase consisted of a gradient of water (A) and acetonitrile/water 95:5 v/v (B), both containing 1 mM ammonium formate. The flow rate was maintained at 400 μL/min, and the gradient profile was as follows: t0-1.0min: […] A = 70%; and t5.1-9.0min: A = 70%. […] The injection volume was 20 μL, and the column temperature was maintained at 25°C for positive ion mode and at 35°C for negative ion mode. Data acquisition was performed with the MS Workstation by Analyst software, version 1.4.2 (ABSciex). Quantification was performed in Multiple Reaction Monitoring (MRM) mode, maintaining the dwell time at 300 and 400 ms for the positive and negative ion modes, respectively. […]

[4] = Second screening: 60 mL of guaco syrup spiked with 100, 500, 1000 or 1500 mg of COU; type: in vivo, human
Procedure: All the volunteers fasted for 8 h prior to the administration of guaco syrup and blood collection. Blood samples (3.0 mL) were collected (using flexible catheter 18–20G) before the syrup administration (zero min) and at fifteen time points after the syrup administration (10, 20, 30, 45, 60, 75, 90, 120, 150, 180, 240, 360, 480, 540 and 600 min). The anticoagulant used was tetrasodium edetate. All the samples were immediately centrifuged at 4000 rpm (5.0 min, room temperature), and the plasma was aliquoted and frozen at -40°C until analysis. The pharmacokinetic analysis was performed using a non-compartmental model, considering an extravascular administration route and using WinNonlin Professional software, version 5.3. The relationships among the areas under the curves (r areas = AUC0-t/AUC0-inf), were used to confirm the suitability of the experimental design. Values greater than 0.8 indicated an appropriate experimental design.

[5] = tested on: guinea pig tracheas; design: method as in PMID 16084046; settings: cited from earlier work
[6] = design: method as in PMID 598421; settings: cited from earlier work
[7] = tested on: histamine inhalation; design: method as in PMID 16084046; settings: guinea pigs; cited from earlier work
[8] = high level (1250.0, 750.0, 750.0, 500.0 ng/mL)
[9] = low level (50.0, 12.5, 25.0, 10.0 ng/mL)
[10] = both sexes, human, plasma, po, 1500 mg, human plasma, 60 mL guaco syrup spiked with 1500 mg coumarin, n = 5, mean ± S.D.
[11] = both sexes, human, plasma, po, 1500 mg, human plasma, 60 mL guaco syrup spiked with 1500 mg coumarin, n = 5, mean ± S.D., read-out: Cmax
[12] = both sexes, human plasma, oral, 60 mL guaco syrup spiked with 1500 mg coumarin, n = 5, mean ± S.D.
[13] = human plasma, oral, 60 mL guaco syrup spiked with 1500 mg coumarin, n = 5, mean ± S.D.

SMILES	Mean recovery [2, 8]	Mean recovery [2, 9]	RE ([2]; high level)	RE ([2]; low level)	half-life [3, 10]	Cmax [3, 11]	AUC(0-inf) [3, 12]	AUC(0-t) [3, 12]	Tmax [3, 12]	T1/2 [3, 13]	r areas (AUC0-t/AUC0-inf) [3, 13]	also measured
O=c1ccc2ccc(O)cc2o1 [7-HCOU, 7-hydroxycoumarin]	776.4 ± 18.7 ng/mL	11.5 ± 0.7 ng/mL	3.52%	-7.73%	~1 h	85 ± 40.1 ng/mL	134 ± 58 ng·h/mL	126 ± 54 ng·h/mL	1.4 ± 0.68 h	1.16 ± 0.82 ^a h	0.95 ± 0.05	attenuation of allergic airway inflammation [1]: significant attenuation; Kel (elimination rate constant) [3, 13]: 0.91 ± 0.59 h⁻¹
O=c1ccc2ccccc2o1 [COU, 1,2 benzopyrone]	1281.3 ± 44.2 ng/mL	47.6 ± 3.4 ng/mL	5.00%	-9.55%	~4 h	735 ng/mL	1460 ± 547 ng·h/mL	1340 ± 515 ng·h/mL	0.93 ± 0.57 h	–	0.92 ± 0.03	time of peak absorption after syrup administration ([4]; all four volunteers, 100, 500, 1000 and 1500 mg COU): 10 min; Tmax ([4]; both sexes, human, plasma, oral, read-out: time of peak concentration in plasma): 0.75 to 2 h; concentration at 10 min ([4]; human, plasma, oral, 100 mg dosage, 10 min after syrup administration): 22.1 ng/mL; EC50, relaxing effect ([5]; guinea pig tracheas pre-contracted with carbachol): 33.4 µg/mL (≈ 229 µM); EC50, relaxing effect ([5]; guinea pig tracheas pre-contracted with histamine): 35.0 µg/mL (≈ 239 µM); clearance ([3]; both sexes, human, plasma, oral, 1500 mg, Cl/f multiplied by the bioavailability 0.034 of ref 32, read-out: estimated clearance (Cl = 1148.0 x 0.034) (converted)): 651 mL/min; Vd ([3]; both sexes, human, plasma, oral, 1500 mg, Vd/f multiplied by the bioavailability 0.034 of ref 32, read-out: estimated volume of distribution (Vd = 6733.0 x 0.034)): 229 L; Vd/F ([3]; both sexes, human plasma, oral, 60 mL guaco syrup spiked with 1500 mg coumarin, n = 5, mean ± S.D., read-out: Vd/f (apparent volume of distribution)): 6730 ± 3280 L; Cl/f (apparent clearance) [3, 13]: 1148.0 L/h and 1148.0 ± 411.0 L/h; Cmax [3, 13]: 735.46 ± 252.29 ng/mL; bioavailability [6]: 3.4%; AD50 (adequate dose protecting 50% of the tested animals) [7]: 75 mg/kg
O=C(O)/C=C/c1ccccc1O [OCA, o-coumaric acid]	727.4 ± 34.5 ng/mL	22.7 ± 0.6 ng/mL	-3.01%	-2.32%	~3 h	231 ± 187 ng/mL	518 ± 299 ng·h/mL	465 ± 299 ng·h/mL	1.45 ± 0.84 h	3.50 ± 0.83 ^b h	0.87 ± 0.08	–
